Consider five compounds from article PMC13524802, “Unique adaptations in sulfatases underpin colonic mucin degradation by Akkermansia muciniphila” (Nature Microbiology, 2026).

The target in assay [1] is T1, Amuc1755^4S-Gal (Akkermansia muciniphila, UniProt B2UML7, E464G).
T1 construct: gene Amuc_1755; recombinant, N-terminal His6 (pETite), E. coli TUNER (DE3); monomer
Description: HPAEC and TLC desulfation assay. Type of assay: biochemical. The settings on record: overnight, 37 °C.

Assay [2] has as its target T2, Amuc1755^4S-Gal (Akkermansia muciniphila, UniProt B2UML7, E464A).
T2 construct: gene Amuc_1755; recombinant, N-terminal His6 (pETite), E. coli TUNER (DE3); monomer
The experiment in a line: HPAEC and TLC desulfation assay. Type of assay: biochemical. To be noted: overnight, 37 °C.

Assay [3] deals with Amuc1033^6S-GlcNAc (Akkermansia muciniphila) (UniProt B2UQX4). The experiment in a line: SEC-MALS; size-exclusion chromatography coupled to light scattering (90°) and refractive index; Agilent BioSEC Advance 300 Å column; 20 mM Tris-HCl pH 7.4, 150 mM NaCl; calibrated with BSA. On the technique in general: Size exclusion chromatography separates by hydrodynamic size, large species first.

A further assay deals with T3, Amuc0491^3S-Gal/GalNAc (Akkermansia muciniphila, UniProt B2UNV9).
T3 construct: gene Amuc_0491; recombinant, N-terminal His6 (pETite), E. coli TUNER (DE3)
The experiment in a line: HPAEC and microfluidic desulfation assays. The settings on record: 5 mM CaCl2, 150 mM NaCl; kinetics (kcat/Km only) with labelled compound. The assay is classed as biochemical.

T2 sequence (B2UML7 entry or part of it E464A): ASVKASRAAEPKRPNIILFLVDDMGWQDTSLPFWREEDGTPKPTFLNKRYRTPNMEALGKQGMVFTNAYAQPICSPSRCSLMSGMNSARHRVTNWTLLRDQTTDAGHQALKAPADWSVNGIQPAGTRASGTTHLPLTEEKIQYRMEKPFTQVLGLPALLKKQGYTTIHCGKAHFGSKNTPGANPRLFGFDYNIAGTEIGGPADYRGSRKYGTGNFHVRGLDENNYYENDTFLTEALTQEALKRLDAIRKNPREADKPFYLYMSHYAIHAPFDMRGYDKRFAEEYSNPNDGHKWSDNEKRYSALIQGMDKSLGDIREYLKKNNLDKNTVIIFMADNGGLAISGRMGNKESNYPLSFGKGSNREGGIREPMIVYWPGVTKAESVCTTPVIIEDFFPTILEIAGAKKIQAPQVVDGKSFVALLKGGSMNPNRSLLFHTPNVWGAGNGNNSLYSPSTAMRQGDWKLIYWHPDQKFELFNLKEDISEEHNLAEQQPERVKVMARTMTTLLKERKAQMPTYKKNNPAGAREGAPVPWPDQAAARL
T1 sequence (B2UML7 entry or part of it E464G): as the sequence (B2UML7 entry or part of it E464A) above, with A441G counted along it
T3 sequence (B2UNV9 entry or part of it): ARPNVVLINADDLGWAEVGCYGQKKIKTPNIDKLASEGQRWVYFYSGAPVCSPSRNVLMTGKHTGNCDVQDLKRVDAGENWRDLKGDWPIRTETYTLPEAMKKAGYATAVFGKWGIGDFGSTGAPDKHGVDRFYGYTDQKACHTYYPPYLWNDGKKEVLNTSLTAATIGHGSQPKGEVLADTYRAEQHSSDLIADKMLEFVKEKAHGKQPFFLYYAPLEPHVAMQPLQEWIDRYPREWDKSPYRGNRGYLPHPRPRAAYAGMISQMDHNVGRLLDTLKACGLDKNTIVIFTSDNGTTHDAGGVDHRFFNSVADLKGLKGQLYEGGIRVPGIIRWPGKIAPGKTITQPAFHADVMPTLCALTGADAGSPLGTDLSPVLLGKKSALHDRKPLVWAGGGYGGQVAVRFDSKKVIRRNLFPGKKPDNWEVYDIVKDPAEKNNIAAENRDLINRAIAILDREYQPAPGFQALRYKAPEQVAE

Turning to `CC(=O)N[C@H]1C(O)O[C@H](CO)[C@H](OS(=O)(=O)O)[C@@H]1O` (stereo partly drawn) [4S-GalNAc, O4 sulfated N-acetyl-D-galactosamine], the “HPAEC and TLC desulfation assay” value on Amuc1755^4S-Gal [1] is “Mutation of Glu464 to Ala and Gly enabled the Amuc1755^4S-Gal to work on 4S-GalNAc”; on Amuc1755^4S-Gal [2] it was “Mutation of Glu464 to Ala and Gly enabled the Amuc1755^4S-Gal to work on 4S-GalNAc”.

A word on the stoichiometry N: it is the number of molecules, sites or subunits per partner or assembly. In assay [3], “Amuc1033^6S-GlcNAc (from UniProt B2UQX4 1-581) (enzyme)” yielded a stoichiometry N of 2.

Turning to `CC(=O)N[C@H]1C(O)O[C@H](CO)[C@H](O)[C@@H]1OS(=O)(=O)O` (stereo partly drawn) [3S-GalNAc, O3 sulfated N-acetyl-D-galactosamine], on Amuc0491^3S-Gal/GalNAc, the “HPAEC and microfluidic desulfation assays” value is “only Amuc0491^3S-Gal/GalNAc was capable of desulfating O3 sulfatedN-acetyl-D-galactosamine (3S-GalNAc)”.

As for `O=S(=O)(O)O[C@@H]1[C@H](O)[C@@H](O)C(O)O[C@@H]1CO` (stereo partly drawn) [4S-Gal, O4 sulfated D-galactose], the “HPAEC and TLC desulfation assay” value on Amuc1755^4S-Gal [1] and at Amuc1755^4S-Gal [2] was “but reduced activity on 4S-Gal” throughout.

Take `O=S(=O)(O)O[C@H]1[C@@H](O)[C@@H](CO)OC(O)[C@@H]1O` (stereo partly drawn) [3S-Gal, O3 sulfated D-galactose]: the “HPAEC and microfluidic desulfation assays” value at Amuc0491^3S-Gal/GalNAc is given as “which desulfate O3 sulfated D-galactose (3S-Gal)-containing substrates”.
